Patent EP1298214A2, “Plant thioesterases” (Calgene LLC, priority 1990, dated 1991)
Like-named read-outs stand apart in the source and are kept apart here.

What was measured:
[1] = tested on: material which fails to bind the ACP column (Lauroyl-CoA hydrolysis activity); experiment: Substrate hydrolysis (ACP versus CoA) by peak unbound fraction of the ACP column; type: biochemical, Umbellularia californica; conditions: Flow-through (nonbinding) fraction; cpm of ether-extractable product
Protocol: (§1) To assay for C12 thioesterase activity the following mixture is incubated at 30° for 30 min: "buffer" comprising 7mM KH2PO4-KOH pH 8, 20% v/v glycerol, 1mM dithiothreitol (DTT), 0.1% v/v Triton X100; sample to be tested for activity in the same or similar buffer as the "extraction buffer" described in Example 2; and 5µl of ^14C-radiolabeled lauroyl-ACP substrate for a total volume of 100µl and final lauroyl-ACP concentration of 0.5µM. Lauroyl-ACP substrate is prepared according to the method of Rock et al (Methods in Enzymology (1981) 72:397-403), using ACP prepared from Escherichia coli by the method of Rock and Cronan (Methods in Enzymology (1981) 71:341-351). The laurate is radiolabeled in the carboxylate group at a specific radioactivity of 50-60µCi/µmol.
(§2) The reaction is stopped by adding 0.5ml cold (0°) 10% v/v acetic acid. […] After settling for a few minutes the upper ether layer is transferred to 5ml scintillation fluid for determination of radioactivity by liquid scintillation spectrometry. Additional ether extractions may be performed to recover remaining traces of the reaction product for more accurate quantitation of the enzyme activity if desired. The amount of ether-extracted radioactivity is a direct measure of C12-preferring acyl-ACP thioesterase activity, provided the amount of enzyme is not sufficient to hydrolyze more than about 25% of the substrate. […]

[2] = tested on: Bay seeds extractable C12-preferring acyl-ACP thioesterase and lauroyl-CoA hydrolysis activity; experiment: Extractable hydrolysis activity at two stages of Bay seed development; type: biochemical, Umbellularia californica; conditions: cpm ether-extractable radioactivity
Protocol: as §1
(§3) The reaction is stopped by adding 0.5ml cold (0°) 10% v/v acetic acid. The fatty acid product of the hydrolytic enzyme action is extracted away from the unhydrolyzed substrate by adding 1ml diethyl ether and mixing vigorously. After settling for a few minutes the upper ether layer is transferred to 5ml scintillation fluid for determination of radioactivity by liquid scintillation spectrometry. Additional ether extractions may be performed to recover remaining traces of the reaction product for more accurate quantitation of the enzyme activity if desired. The amount of ether-extracted radioactivity is a direct measure of C12-preferring acyl-ACP thioesterase activity, provided the amount of enzyme is not sufficient to hydrolyze more than about 25% of the substrate. With greater activity than this the relationship between radioactivity in the ether layer and the quantity of enzyme becomes markedly nonlinear. The enzyme preparation must then be diluted appropriately to bring the activity into the linear range of the assay.
Further evidence that the C12-preferring acyl-ACP thioesterase is involved in the biosynthesis of laurate groups that predominate in the Bay seeds comes from a comparison of the extractable activity of the enzyme at two different stages of seed development. As shown in the following table, Table 5, very young seeds, which contain only long-chain fatty acids and insignificant amounts of laurate, yield much less C12-preferring ACP thioesterase than older seeds that have accumulated significant amounts of laurate. Thus it appears that significant activity of this enzyme is only present when the seeds are accumulating laurate. Additionally, there appears to be much less difference in lauroyl-CoA hydrolysis activity, consistent with their being different enzymes as discussed above in Example 5.

[3] = biological target: T1, Bay C12-preferring acyl-ACP thioesterase (Umbellularia californica, UniProt Q41635); experiment: Substrate hydrolysis (ACP versus CoA) by peak gradient-eluted fraction of the ACP column; type: biochemical; parameters: This comprises the source tissue for enzyme extraction; from tissue; host or cells: cotyledons of immature Umbellularia californica seeds; conditions: cpm of ether-extractable product
T1 sequence (Q41635 84-382): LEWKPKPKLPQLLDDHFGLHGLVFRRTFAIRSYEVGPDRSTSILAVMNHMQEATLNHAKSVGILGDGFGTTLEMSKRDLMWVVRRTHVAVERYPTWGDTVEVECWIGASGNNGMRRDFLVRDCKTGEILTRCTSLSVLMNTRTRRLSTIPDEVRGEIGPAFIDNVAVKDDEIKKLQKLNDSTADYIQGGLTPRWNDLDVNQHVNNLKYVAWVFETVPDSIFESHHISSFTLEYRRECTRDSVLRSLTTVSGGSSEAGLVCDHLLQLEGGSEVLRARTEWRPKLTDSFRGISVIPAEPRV
Protocol: as §1, §2

[4] = biological target: T2, Bay cotyledon C12-preferring acyl-ACP thioesterase (Umbellularia californica, UniProt Q41635); experiment: C12-preferring acyl-ACP thioesterase inhibitor studies, Bay ammonium sulfate fraction; type: biochemical; conditions: for inhibition at 500 µM / inhibition at 5000 µM: read-out: Percent Inhibition; for sensitivity of the thioesterase to the thiol reagent (in words): 5mM, preliminary inhibitor studies
T2 construct: This comprises the source tissue for enzyme extraction; from tissue; host or cells: cotyledons of immature Umbellularia californica seeds
T2 sequence (Q41635 84-382): T1 sequence (Q41635 84-382)
Protocol: as §1, §3
The crude extract is subjected to ammonium sulfate fractionation as follows. Sufficient solid ammonium sulfate is gradually added with stirring over 30 min to achieve 70% saturation. The preparation is then stirred for a further 30 min. After centrifuging as described above, the pelleted material is resuspended in extraction buffer (2ml/g original tissue weight) and stirred for 10 min until dissolved. Ammonium sulfate is then added as before, but this time only sufficient to achieve 50% saturation. After centrifuging as before, the supernatant fraction is discarded. The pelleted material, which contains the C12-preferring acyl-ACP thioesterase, may be frozen by immersion in liquid nitrogen and then stored at -70° at this stage if desired. The resulting material is referred to as the "ammonium sulfate fraction." Very little of the C12-preferring acyl-ACP thioesterase activity is lost if the pellet is frozen very rapidly.
Table 1 below reports inhibition of Bay cotyledon C12-preferring acyl-ACP thioesterase by thiol reagents observed when an ammonium sulfate fraction (see, Example 2) was assayed (see, Example 1).
After removal of dithiothreitol from an ammonium sulfate fraction preparation by passage through a small. column of G25-50 gel filtration medium (Pharmacia, Piscataway, NJ) the following assay results were observed.

[5] = tested on: Cuphea C10-preferring acyl-ACP thioesterase; experiment: C10 acyl-ACP thioesterase inhibitor studies, material from Example 9A; type: biochemical, Cuphea hookeriana; conditions: preliminary inhibitor studies; for sensitivity of the thioesterase to the inhibitor (in words): concentration not given
Protocol: Following the same general procedures as outlined in Example 1, to assay for C10 thioesterase activity, the following mixture is incubated at 30° for 10-60 min: 50µl sample to be tested in the same or similar "extraction buffer" described in Example 9A, and approximately 250pmol of [^14C]-radiolabeled acyl-ACP substrate, (usually decanoyl-ACP is labeled in the carboxylate group to 50-60µCi/µmol) in a total volume of […], for a final decanoyl-ACP concentration of 0.5-5.0µM, typically 5.0µM. The reaction is stopped by adding 0.5ml 10% (v/v) cold (4°) acetic acid and placing the reaction mixture on ice for a few minutes. The fatty acid product of the hydrolytic enzyme action is extracted away from the unhydrolyzed substrate by adding 2ml diethyl ether and mixing vigorously. The ether is transferred to 5ml scintillation fluid for scintillation counting. Additional ether extracts may be performed to recover remaining traces of product for more accurate quantitation of the activity if desired.
An acetone powder is prepared by grinding the seeds to a powder in a mortar and pestle under liquid nitrogen, and then grinding the powder in a mortar and pestle with cold acetone (at approximately -20°). The powder is collected by filtration and rinsed with cold ether to remove remaining traces of acetone. It is then extracted with 10ml of "extraction buffer" per gram of acetone powder weight (this and all subsequent steps at 0-4°) comprising 50mM KH2PO4-KOH pH 7.5, 10mM 2-mercaptoethanol. The homogenate is centrifuged at 11,000xg for 15 min at 4°, and the supernatant fraction used for subsequent purification steps after filtration through two layers of Miracloth (Calbiochem. Inc.; LaJolla, CA).
The supernatant fraction is then subjected to ammonium sulfate fractionation. The 40-60% saturation ammonium sulfate pellet (prepared as described in Example 2) is redissolved in "buffer" comprising 50mM KH2PO4-KOH pH 6.9, 10% (v/v) glycerol, and 10mM 2-mercaptoethanol, and dialyzed against this buffer to remove remaining ammonium sulfate. […]

[6] = 0.5mM added to assay, mean of duplicates, ether layer, control without addition 4322
[7] = 5mM added to assay, after removal of dithiothreitol by G25-50 gel filtration, control 3776
[8] = 5mM added to assay, after removal of dithiothreitol by G25-50 gel filtration
[9] = 5mM added to assay, mean of duplicates, ether layer, control without addition 4322

CCCCCCCCCCCC(=O)SCCNC(=O)CCNC(=O)[C@H](O)C(C)(C)COP(=O)(O)OP(=O)(O)OC[C@H]1O[C@@H](n2cnc3c(N)ncnc32)[C@H](O)[C@@H]1OP(=O)(O)O [C12-CoA, lauroyl coenzyme A]
Activity on Substrate [1]: 10808 cpm
Hydrolysis / Thioesterase Activity In Assays ([2]; Normal Seeds (2g/cotyledon pair)): 31,268 cpm
Hydrolysis / Thioesterase Activity In Assays ([2]; Young Seeds (0.5g/cotyledon pair)): 29,995 cpm
Activity on Substrate [3]: 27 cpm

CCN1C(=O)C=CC1=O [N-ethylmaleimide]
Mean Activity [4, 6]: 4320 cpm
inhibition at 500 µM ([4]; 0.5mM added to assay): 0%
Mean Activity [4, 7]: 269 cpm
inhibition at 5000 µM [4, 8]: 93%
Mean Activity [4, 9]: 103 cpm
inhibition at 5000 µM ([4]; 5mM added to assay): 98%
sensitivity of the thioesterase to the thiol reagent (in words) [4]: almost completely inhibited
inhibition of the thioesterase (in words) ([5]; 5mM): completely inhibited

NC(=O)CI [iodoacetamide]
Mean Activity [4, 6]: 4180 cpm
inhibition at 500 µM ([4]; 0.5mM added to assay): 3%
Mean Activity [4, 7]: 3851 cpm
inhibition at 5000 µM [4, 8]: 0%
Mean Activity [4, 9]: 4047 cpm
inhibition at 5000 µM ([4]; 5mM added to assay): 6%
sensitivity of the thioesterase to the thiol reagent (in words) [4]: insensitive
sensitivity of the thioesterase to the inhibitor (in words) [5]: insensitive

O=S(=O)(F)Cc1ccccc1 [phenylmethylsulfonyl fluoride]
sensitivity of the thioesterase to the inhibitor (in words) [5]: insensitive
